Experimental data published in US12049518B2, “Pharmacokinetics and cholecystokinin-2 receptor (CCK2R) targeting for diagnosis and therapy” (Medizinische Universitat Innsbruck, priority 2017, dated 2024).
Where two headings read alike, the source gives them in different places. Blank lines part the entries; values can stand above or below the compound they belong to. Where a SMILES comes first, the peptide text is derived from it. [ ]: non-standard residue; d: D form. The star is where a group is joined. DOTA = O=C(O)CN1CCN(CC(=O)O)CCN(CC(=O)*)CCN(CC(=O)O)CC1; 1Nal = N[C@@H](Cc1cccc2ccccc12)C(=O)O; NMeNle = CCCC[C@H](NC)C(=O)O

Columns and labels:
[1] = molecular target: T1, human CCK2R (Homo sapiens, UniProt P32239); assay: CCK2R competition binding assay against [125I]Tyr12-gastrin-I on A431-CCK2R cells
T1 construct: expressed in transfected cells; host or cells: A431 human epidermoid carcinoma cells (A431-CCK2R), plasmid pCR3.1, provided by Dr. Luigi Aloj
T1 sequence (P32239 1-447): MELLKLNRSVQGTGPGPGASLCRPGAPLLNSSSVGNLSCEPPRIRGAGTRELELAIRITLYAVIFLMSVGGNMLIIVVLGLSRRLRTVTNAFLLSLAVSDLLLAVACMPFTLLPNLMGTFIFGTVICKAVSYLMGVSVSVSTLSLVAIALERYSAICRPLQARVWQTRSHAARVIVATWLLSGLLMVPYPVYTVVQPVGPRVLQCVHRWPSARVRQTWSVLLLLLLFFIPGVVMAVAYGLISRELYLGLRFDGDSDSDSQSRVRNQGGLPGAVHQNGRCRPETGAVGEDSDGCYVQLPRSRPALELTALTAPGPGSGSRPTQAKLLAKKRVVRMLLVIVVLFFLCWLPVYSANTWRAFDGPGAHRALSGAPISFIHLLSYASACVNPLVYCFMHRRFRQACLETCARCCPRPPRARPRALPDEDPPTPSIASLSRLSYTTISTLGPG
Method: Affinity for CCK2R was studied in A431 human epidermoid carcinoma cells stably transfected with the plasmid pCR3.1 containing the full coding sequence for the human CCK2R (A431-CCK2R) kindly provided by Dr. Luigi Aloj (Aloj L et al., J Nucl Med 2004, 45: 485-494). […] Radioiodination of gastrin-1 was carried out using the chloramine-T method. Non-carrier-added [^125I-Tyr^12]gastrind was obtained by HPLC purification and stored in aliquots at −20° C. Binding assays were carried out in 96-well filter plates (MultiScreenHTS-FB, Merck Group, Darmstadt, Germany) pretreated with 10 mM TRIS/139 mM NaCl pH 7.4 (2×250 μl). For the assay a number of 200,000-400,000 A431-CCK2R cells per well was prepared in 35 mM HEPES buffer pH 7.4 containing 10 mM MgCl2, 14 μM bacitracin and 0.5% BSA (a hypotonic solution disturbing the integrity of the cell membranes). The cells were incubated in triplicates with increasing concentrations of the peptidomimetics (0.0003 to 10,000 nM, for example 0.001 to 1000 nM) and [^125I-Tyr^12]gastrin-I (20,000-60,000 cpm) for 1 h at RT. Incubation was interrupted by filtration of the medium and rapid rinsing with ice-cold 10 mM TRIS/139 mM NaCl pH 7.4 (2×200 μl) and the filters were counted in the gamma-counter. Half maximal inhibitory concentration (IC50) values were calculated following nonlinear regression with Origin software (Microcal Origin 6.1, Northampton, MA) and a representative assay was chosen for comparison.

[2] = biodistribution: uptake in normal tissues; assay type: in vivo, athymic BALB/c nude mice; details: female, athymic BALB/c nude, mouse, iv, total radioactivity
Method: Biodistribution studies evaluating the tumour uptake of the radiolabelled inventive CCK2R targeting peptide analogues were performed in 7-week-old female athymic BALB/c nude mice (Charles River, Sulzfeld, Germany). All animal experiments were conducted in compliance with the Austrian animal protection laws and with the approval of the Austrian Ministry of Science. For the induction of tumour xenografts, A431-CCK2R and A431-mock cells were injected subcutaneously in the right and left flank respectively (2 million cells in 200 μl). When tumours had reached a size of approximately 0.2 ml biodistribution studies were carried out. Groups of 4 mice were injected intravenously via a lateral tail vein with the peptidomimetics of the present invention, labelled with ^111In (approximately 0.2 MBq and 0.02 nmol peptidomimetic), with ^68Ga (approximately 0.8 MBq and 0.02-0.03 nmol peptidomimetic), with ^177Lu (approximately 0.5 MBq and 0.02 nmol peptidomimetic) or with ^99mTc (approximately 0.3 MBq and 0.02 nmol peptidomimetic). After a time period of 1 or 4 h post-injection (p.i.) the animals were sacrificed by cervical dislocation, tumours and other tissues (blood, lung, heart, muscle, bone, spleen, intestine, liver, kidneys, stomach, pancreas) were removed, weighed, and their radioactivity measured in the gamma counter. Results were expressed as percentage of injected activity per gram tissue (% IA/g) and tumour to organ activity ratios were calculated from the activity measured in the dissected tissues. In FIG. 4 the results of the biodistribution studies at 4 h p.i. are summarized for the ^111In-labelled peptidomimetics of the present invention in comparison with ^111In-DOTA-MGS1 and ^111In-DOTA-MGS4 (Klingler M et al., Eur J Nucl Med Mol Imaging 2017, 44: S228). In FIG. 5 the results for the model peptidomimetics of the present invention, DOTA-MGS5 and HYNIC-MGS5, radiolabelled with different radiometals are shown for different time points of 1 or 4 h p.i. […] The uptake in A431-mock tumour xenografts with values <1% IA/g was very low confirming the high receptor-specific tumour uptake. […] A combination of high stability and increased protein binding in vivo seems therefore to result in an optimal protection of the radioligand against enzymatic degradation in blood allowing reaching an extremely high tumour uptake.

[3] = cited from earlier work
[4] = stability in vivo (radio-HPLC of blood sample); details: BALB/c mice, i.v., 10 min p.i.
Method: To further characterise the stability of the radiolabelled peptidomimetics in vivo, metabolic studies were carried out in 5-6-week-old female BALB/c mice (Charles River, Sulzfeld, Germany) injected intravenously with the ^111In- and […] peptidomimetics. All animal experiments were conducted in compliance with the Austrian animal protection laws and with the approval of the Austrian Ministry of Science. To allow monitoring of the metabolites by radio-HPLC, mice were injected with a higher amount of radioactivity (5-15 MBq ^111In and 20-40 MBq ^177Lu, corresponding to 1-2 nmol total peptide) through a lateral tail vein and euthanized by cervical dislocation 10 or 30 min post injection (p.i.). A sample of blood was collected and the degradation was assessed by radio-HPLC.

[5] = test system: serum proteins; assay: protein binding to serum proteins (Sephadex G-50 size-exclusion chromatography); assay type: in vitro ADME; details: 37° C.; for fraction unbound at 4 h, 500 pmol/mL / fraction unbound at 24 h, 500 pmol/mL: fresh human serum; for fraction unbound at 4 h, 500 pmol/mL: read-out: Percentage of radioligand bound to serum proteins after 4 h incubation (converted); for fraction unbound at 24 h, 500 pmol/mL: read-out: Percentage of radioligand bound to serum proteins after 24 h incubation (converted); for Percentage of radioligand bound to serum proteins after 24 h incubation: human serum
Method: Additionally, protein binding to serum proteins was investigated. For this purpose the ^111In-labelled peptidomimetics were incubated in duplicates in fresh human serum at 37° C. (500 pmol/mL) and analyzed after 4 and 24 h by Sephadex G-50 size-exclusion chromatography (GE Healthcare Illustra, Little Chalfont, UK). The percentage of protein binding was determined by measuring the column and the eluate in a 2480 Wizard 2 automatic gamma-counter (Perkin Elmer Life Sciences and Analytical Sciences, Turku, F).

[6] = in vivo, Nock et al. 2014; cited from earlier work
[7] = displacement of [125I]Tyr12-gastrin-I, A431-CCK2R cells, 1 h at RT, read-out: IC50
[8] = kidneys, 1 or 4 h p.i. (111In-labelled series: 4 h p.i.), read-out: kidney uptake

Compound: CSCC[C@H](NC(=O)[C@H](Cc1c[nH]c2ccccc12)NC(=O)CNC(=O)[C@H](Cc1ccc(O)cc1)NC(=O)[C@H](C)NC(=O)[C@@H](CCC(=O)O)NC(=O)[C@@H](CCC(=O)O)NC(=O)[C@@H](CCC(=O)O)NC(=O)[C@@H](CCC(=O)O)NC(=O)[C@@H](CCC(=O)O)NC(=O)[C@@H](CCC(=O)O)NC(=O)CN1CCN(CC(=O)O)CCN(CC(=O)O)CCN(CC(=O)O)CC1)C(=O)N[C@@H](CC(=O)O)C(=O)N[C@@H](Cc1ccccc1)C(N)=O [PP-F11, reference compound]
IC50 [1]: 400 ± 100 pM

Compound: CCCC[C@@H](C(=O)N[C@@H](CC(=O)O)C(=O)N[C@@H](Cc1cccc2ccccc12)C(N)=O)N(C)C(=O)[C@H](Cc1c[nH]c2ccccc12)NC(=O)CNC(=O)[C@@H]1CCCN1C(=O)[C@H](Cc1ccc(O)cc1)NC(=O)[C@@H](CCC(=O)O)NC(=O)CN1CCN(CC(=O)O)CCN(CC(=O)O)CCN(CC(=O)O)CC1 [DOTA-MGS10, DOTA-DGlu-Tyr-Pro-Gly-Trp-(N-Me)Nle-Asp-1Nal-NH2] ({DOTA}-[dE]YPGW[NMeNle]D[1Nal]-NH2)
IC50 [1, 7]: 900 ± 200 pM

Compound: CSCC[C@H](NC(=O)[C@H](Cc1c[nH]c2ccccc12)NC(=O)CNC(=O)[C@H](Cc1ccc(O)cc1)NC(=O)[C@H](C)NC(=O)[C@@H](CCC(=O)O)NC(=O)CN1CCN(CC(=O)O)CCN(CC(=O)O)CCN(CC(=O)O)CC1)C(=O)N[C@@H](CC(=O)O)C(=O)N[C@@H](Cc1ccccc1)C(N)=O [DOTA-MG11, [1,4,7,10-tetraazacyclodocecan-1,4,7,10-tetraacetic acid^0,D-Glu^1,DesGlu^2-6]minigastrin, reference compound] ({DOTA}-[dE]AYGWMDF-NH2)
IC50 [1, 7]: 900 ± 500 pM
biological half-life in vivo [3]: below five

Compound: CCCC[C@@H](C(=O)N[C@@H](CC(=O)O)C(=O)N[C@@H](Cc1cccc2ccccc12)C(N)=O)N(C)C(=O)[C@H](Cc1c[nH]c2ccccc12)NC(=O)CNC(=O)[C@H](Cc1ccc(O)cc1)NC(=O)[C@H](C)NC(=O)[C@@H](CCCCN)NC(=O)CN1CCN(CC(=O)O)CCN(CC(=O)O)CCN(CC(=O)O)CC1 [^111In-DOTA-MGS9, metal not drawn] ({DOTA}-[dK]AYGW[NMeNle]D[1Nal]-NH2)
tissue uptake at 4 h ([2]; intestine and liver, 0.02 nmol peptidomimetic, 4 h p.i.): ~2 %ID/g
tissue uptake [2, 8]: 20.7 ± 4.4 %ID/g
intact radioligand present in the blood at 10 min p.i. [4]: 93.9±1.2%
fraction unbound at 4 h, 500 pmol/mL [5]: 0.734
fraction unbound at 24 h, 500 pmol/mL [5]: 0.722
Percentage of radioligand bound to serum proteins after 24 h incubation [5]: ~30%

Compound: CSCC[C@H](NC(=O)[C@H](Cc1c[nH]c2ccccc12)NC(=O)CNC(=O)[C@H](Cc1ccc(O)cc1)NC(=O)[C@H](C)NC(=O)[C@@H](CCC(=O)O)NC(=O)CN1CCN(CC(=O)O)CCN(CC(=O)O)CCN(CC(=O)O)CC1)C(=O)N[C@@H](CC(=O)O)C(=O)N[C@@H](Cc1ccccc1)C(N)=O [^111In-DOTA-MG11, metal not drawn, reference compound] ({DOTA}-[dE]AYGWMDF-NH2)
fraction unbound at 4 h, 500 pmol/mL [5]: 0.899
fraction unbound at 24 h, 500 pmol/mL [5]: 0.938
Percentage of radioligand bound to serum proteins after 24 h incubation [5]: < 10%
intact radiopeptide 5 min after injection [6]: 5%

Compound: CCCC[C@@H](C(=O)N[C@@H](CC(=O)O)C(=O)N[C@@H](Cc1cccc2ccccc12)C(N)=O)N(C)C(=O)[C@H](Cc1c[nH]c2ccccc12)NC(=O)CNC(=O)[C@H](Cc1ccc(O)cc1)NC(=O)[C@@H]1CCCN1C(=O)[C@@H](CCC(=O)O)NC(=O)CN1CCN(CC(=O)O)CCN(CC(=O)O)CCN(CC(=O)O)CC1 [DOTA-MGS8, DOTA-DGlu-Pro-Tyr-Gly-Trp-(N-Me)Nle-Asp-1Nal-NH2] ({DOTA}-[dE]PYGW[NMeNle]D[1Nal]-NH2)
IC50 [1, 7]: 1600 ± 200 pM

Now from value to compound:

IC50 [1, 7]: 1600 ± 400 pM
Compound: CCCC[C@@H](C(=O)N[C@@H](CC(=O)O)C(=O)N[C@@H](Cc1ccc2ccccc2c1)C(N)=O)N(C)C(=O)[C@H](Cc1c[nH]c2ccccc12)NC(=O)CNC(=O)[C@H](Cc1ccc(O)cc1)NC(=O)[C@H](C)NC(=O)[C@@H](CCC(=O)O)NC(=O)CN1CCN(CC(=O)O)CCN(CC(=O)O)CCN(CC(=O)O)CC1 [DOTA-MGS5-2, DOTA-DGlu-Ala-Tyr-Gly-Trp-(N-Me)Nle-Asp-2Nal-NH2]

tissue uptake ([2]; blood, lung and heart, 1 or 4 h p.i., read-out: unspecific tissue uptake in blood, lung and heart): 1 to 2 %ID/g
Compound: CCCC[C@@H](C(=O)N[C@@H](CC(=O)O)C(=O)N[C@@H](Cc1cccc2ccccc12)C(N)=O)N(C)C(=O)[C@H](Cc1c[nH]c2ccccc12)NC(=O)CNC(=O)[C@H](Cc1ccc(O)cc1)NC(=O)[C@H](C)NC(=O)[C@@H](CCC(=O)O)NC(=O)CN1CCN(CC(=O)O)CCN(CC(=O)O)CCN(CC(=O)O)CC1 [^68Ga-DOTA-MGS5, metal not drawn]

tissue uptake [2, 8]: 4 to 6 %ID/g
tissue uptake ([2]; pancreas, CCK2R expressing organ, 1 or 4 h p.i., read-out: uptake in pancreas): 2 to 3 %ID/g
tissue uptake ([2]; stomach, CCK2R expressing organ, 1 or 4 h p.i., read-out: uptake in stomach): 5 to 8 %ID/g
IC50 [1, 7]: 400 ± 200 pM
Compound: CCCC[C@@H](C(=O)N[C@@H](CC(=O)O)C(=O)N[C@@H](Cc1cccc2ccccc12)C(N)=O)N(C)C(=O)[C@H](Cc1c[nH]c2ccccc12)NC(=O)CNC(=O)[C@H](Cc1ccc(O)cc1)NC(=O)[C@H](C)NC(=O)[C@@H](CCC(=O)O)NC(=O)CN1CCN(CC(=O)O)CCN(CC(=O)O)CCN(CC(=O)O)CC1 [DOTA-MGS5, DOTA-DGlu-Ala-Tyr-Gly-Trp-(N-Me)Nle-Asp-1Nal-NH2]
